Assay results: US20090018111A1, “Novel Antimicrobial Medicament” (priority 2004, published 2009)
Where two headings read alike, the source gives them in different places.

Legend:
Assay in all cases: Sensitivity test (agar dilution)
E. cloacae GN7471 = type: cell-based, Enterobacter cloacae; settings: Enterobacter cloacae, E. cloacae GN7471
Method: (§1) The antibacterial activities were tested against various 18 bacteria (27 standard strains) which are representative bacteria caused clinically infectious disease (Staphylococcus aureus 3 strains, Staphylococcus epidermidis 1 strain, Micrococcus luteus 1 strain, Streptococcus pyogenes 1 strain, Enterococcus faecalis 1 strain, Enterococcus faecium 1 strain, Bacillus subtilis 1 strain, Escherichia coli 3 strains, Klebsiella pneumoniae 1 strain, Proteus mirabilis 1 strain, Proteus vulgaris 2 strains, Pseudomonas aeruginosa 3 strains, Serratia marcescens 2 strains, Enterobacter aerogenes 1 strain, Stenotrophomonas maltophilia 1 strain, Enterobacter cloacae 1 strain, Citrobacter freundii 1 strain, Moraxella catarrhalis 2 strains).
(§2) According to the standard method of Japan Chemotherapeutic Society (Chemotherapy, vol. […], p 76-79 (1981)) the test was carried out using the agar dilution method. After dissolving test samples in distilled water, agar medium containing the test samples was prepared in such a manner that the final concentration became twice serial dilution by pouring serially diluted combination drug solution or a single drug solution into agar medium. As agar medium was used Mueller Hinton Agar medium (MHA). Then, each strain was cultivated over night at 37° C. in an incubator and suspended in buffered saline solution with gelatin (BSG) in the concentration of about 10^6 CFU/ml. The suspension (about 5 μl) containing test strains was inoculated to the medium containing the test samples by Micro Planter.
(§3) When the sample is subjected to sensitivity test, this mixed solution was diluted by twice serial dilution method.
(§4) Furthermore, when the drug is solely used, each test sample was used as it is, and diluted by twice serial dilution method from the maximum concentration to the minimum concentration.
(§5) FIC index based on MIC value was calculated. […] Namely, when FIC index calculated by the following formula is equal or less than 1, the enhanced effect of the combination drug in said ratio is considered as positive. When FIC index is over 1, the enhanced effect of the combination drug in said ratio is considered as negative.
(§6) Formula of FIC index: FIC index=(MIC of Drug A in combination/MIC of Drug A alone)+(MIC of Drug B in combination/MIC of Drug B alone) N.C. in tables means being not calculated.

S. maltophilia IID1275 = type: cell-based, Stenotrophomonas maltophilia; settings: Stenotrophomonas maltophilia, S. maltophilia IID1275
Method: as §1, §2, §3, §4, §5, §6

S. epidermidis IAM1296 = type: cell-based, Staphylococcus epidermidis; settings: Staphylococcus epidermidis, S. epidermidis IAM1296
Method: as §1, §2, §3, §4, §5, §6

Str. pyogenes Cook = type: cell-based, Streptococcus pyogenes; settings: Streptococcus pyogenes, Str. pyogenes Cook
Method: as §1, §2, §3, §4, §5, §6

[1] = tested on: S. aureus SP-7928 (homo-MRSA); type: cell-based, Staphylococcus aureus; settings: Staphylococcus aureus, MRSA, S. aureus SP-7928 (homo-MRSA)
Method: as §1, §2, §3, §4, §5, §6

[2] = tested on: S. aureus MS94088 (hetero-MRSA); type: cell-based, Staphylococcus aureus; settings: Staphylococcus aureus, MRSA, S. aureus MS94088 (hetero-MRSA)
Method: as §1, §2, §3, §4, §5, §6

S. aureus 209P = type: cell-based, Staphylococcus aureus; settings: Staphylococcus aureus, 209P, S. aureus 209P
Method: as §1, §2, §3, §4, §5, §6

P. vulgaris GN7919 = type: cell-based, Proteus vulgaris; settings: Proteus vulgaris, P. vulgaris GN7919
Method: as §1, §2, §3, §4, §5, §6

P. vurgalis OX-19 = type: cell-based, Proteus vulgaris; settings: Proteus vulgaris, P. vurgalis OX-19
Method: as §1, §2, §3, §4, §5, §6

E. faecium ATCC19434 = type: cell-based, Enterococcus faecium; settings: Enterococcus faecium, E. faecium ATCC19434
Method: as §1, §2, §3, §4, §5, §6

M. catarrhalis ATCC25238 = type: cell-based, Moraxella catarrhalis; settings: Moraxella catarrhalis, M. catarrhalis ATCC25238
Method: as §1, §2, §3, §4, §5, §6

M. catarrhalis ATCC8176 = type: cell-based, Moraxella catarrhalis; settings: Moraxella catarrhalis, M. catarrhalis ATCC8176
Method: as §1, §2, §3, §4, §5, §6

C. freundii GN346 = type: cell-based, Citrobacter freundii; settings: Citrobacter freundii, C. freundii GN346
Method: as §1, §2, §3, §4, §5, §6

[3] = Concomitant (DRPM:SM = 1:1), read-out: MIC concomitant
[4] = drug alone, read-out: MIC alone

## C[C@@H](O)[C@H]1C(=O)N2C(C(=O)O)=C(S[C@@H]3CN[C@H](CNS(N)(=O)=O)C3)[C@H](C)[C@H]12 [DRPM, doripenem]
E. cloacae GN7471; GN7471, Concomitant (DRPM:SM = 1:1), read-out: MIC concomitant
  MIC: 0.031 µg/mL
E. cloacae GN7471; GN7471, drug alone, read-out: MIC alone
  MIC: 0.031 µg/mL
S. maltophilia IID1275; IID1275, Concomitant (DRPM:SM = 1:1), read-out: MIC concomitant
  MIC: > 32 µg/mL
S. maltophilia IID1275; IID1275, drug alone, read-out: MIC alone
  MIC: > 32 µg/mL
S. epidermidis IAM1296; IAM1296, Concomitant (DRPM:SM = 1:1), read-out: MIC concomitant
  MIC: 0.031 µg/mL
S. epidermidis IAM1296; IAM1296, drug alone, read-out: MIC alone
  MIC: 0.5 µg/mL
Str. pyogenes Cook; [3]
  MIC: ≤ 0.002 µg/mL
Str. pyogenes Cook; [4]
  MIC: ≤ 0.002 µg/mL
[1]; [3]
  MIC: 1 µg/mL
[1]; [4]
  MIC: 32 µg/mL
[2]; [3]
  MIC: 0.25 µg/mL
[2]; [4]
  MIC: 2 µg/mL
S. aureus 209P; [3]
  MIC: 0.004 µg/mL
S. aureus 209P; [4]
  MIC: 0.016 µg/mL
P. vulgaris GN7919; GN7919, Concomitant (DRPM:SM = 1:1), read-out: MIC concomitant
  MIC: 0.063 µg/mL
P. vulgaris GN7919; GN7919, drug alone, read-out: MIC alone
  MIC: 0.125 µg/mL
P. vurgalis OX-19; OX19, Concomitant (DRPM:SM = 1:1), read-out: MIC concomitant
  MIC: 0.031 µg/mL
P. vurgalis OX-19; OX19, drug alone, read-out: MIC alone
  MIC: 0.031 µg/mL
E. faecium ATCC19434; ATCC19434, Concomitant (DRPM:SM = 1:1), read-out: MIC concomitant
  MIC: 0.25 µg/mL
E. faecium ATCC19434; ATCC19434, drug alone, read-out: MIC alone
  MIC: 8 µg/mL
M. catarrhalis ATCC25238; ATCC25238, Concomitant (DRPM:SM = 1:1), read-out: MIC concomitant
  MIC: ≤ 0.002 µg/mL
M. catarrhalis ATCC25238; ATCC25238, drug alone, read-out: MIC alone
  MIC: 0.004 µg/mL
M. catarrhalis ATCC8176; ATCC8176, Concomitant (DRPM:SM = 1:1), read-out: MIC concomitant
  MIC: ≤ 0.002 µg/mL
M. catarrhalis ATCC8176; ATCC8176, drug alone, read-out: MIC alone
  MIC: 0.008 µg/mL
C. freundii GN346; GN346, Concomitant (DRPM:SM = 1:1), read-out: MIC concomitant
  MIC: 0.063 µg/mL
C. freundii GN346; GN346, drug alone, read-out: MIC alone
  MIC: 0.063 µg/mL
